Earlier results as cited in patent publication US9717712B2, “Combinations comprising tricyclohexadecahexaene derivatives for use in the treatment of hepatitis C virus” (BRISTOL-MYERS SQUIBB COMPANY, priority 2013, dated 2017).
Where two headings read alike, the source gives them in different places.

Tested on: HCV genotype 1a variant with glutamine 30 changed to glutamate in the NS5A protein (Q30E)
Settings: genotype 1a Q30E replicon
[1] = single agent, read-out: EC50, compound titrated singly

Row | Structure (SMILES) | reciprocal synergistic inhibitory effect for the combination (BMS-790052 titrated with P-55 fixed at 200 nM) | EC50 (P-55 fixed at 200 nM, read-out: EC50 of BMS-790052 in the presence of a fixed amount of P-55) | EC50 [1] | EC50 (BMS-790052 fixed at 200 nM, read-out: EC50 of P-55 in the presence of a fixed amount of BMS-790052) | synergistic inhibitory effect for the combination (P-55 titrated with BMS-790052 fixed at 200 nM)
1 | COC(=O)N[C@H](C(=O)N1CCC[C@H]1c1nc(-c2ccc(-c3ccc(-c4c[nH]c([C@@H]5CCCN5C(=O)[C@@H](NC(=O)OC)C(C)C)n4)cc3)cc2)c[nH]1)C(C)C [BMS-790052] | ~100 fold | ~2 nM | ~200 nM | – | –
2 | CC(C)CC(=O)N[C@H](c1ncc(-c2ccc(-c3ccc(-c4cnc([C@@H](NC(=O)CC(C)C)C(C)C)[nH]4)cc3)cc2)[nH]1)C(C)C [Compound P-55] | – | – | > 200 nM | ~2 nM | > 100 fold
